Data on two compounds can be found in ChEMBL document CHEMBL1149767, “Structural and biological studies of mononuclear palladium(II) complexes containing N-substituted thiosemicarbazones” (2008).

Assay type in all cases: functional
For test [1], the system named is Escherichia coli. Kind of test: Antibacterial activity against Escherichia coli assessed as diameter of inhibition zone at 0.5% after 24 hrs.
The subject of test [2] is Pseudomonas aeruginosa. Kind of test: Antibacterial activity against Pseudomonas aeruginosa assessed as diameter of inhibition zone at 0.5% after 24 hrs.
Test [3] relates to Vibrio cholerae. The test is described as follows: Antibacterial activity against Vibrio cholerae assessed as diameter of inhibition zone at 0.5% after 24 hrs. Further details: scale not given: the % may be the effect or the level left.
In test [4] the test system is Escherichia coli. Kind of test: Antibacterial activity against Escherichia coli assessed as diameter of inhibition zone at 1.0% after 24 hrs.
In test [5] the test system is Staphylococcus aureus. Kind of test: Antibacterial activity against Staphylococcus aureus assessed as diameter of inhibition zone at 1.0% after 24 hrs.
The test system of test [6] is Pseudomonas aeruginosa. The test is described as follows: Antibacterial activity against Pseudomonas aeruginosa assessed as diameter of inhibition zone at 1.0% after 24 hrs.
For test [7], the system named is Vibrio cholerae. The test is described as follows: Antibacterial activity against Vibrio cholerae assessed as diameter of inhibition zone at 1.0% after 24 hrs. Further details: scale not given: the % may be the effect or the level left.
In test [8] the test system is Staphylococcus aureus. The test is described as follows: Antibacterial activity against Staphylococcus aureus assessed as diameter of inhibition zone at 2.0% after 24 hrs.
The test system of test [9] is Pseudomonas aeruginosa. The test is described as follows: Antibacterial activity against Pseudomonas aeruginosa assessed as diameter of inhibition zone at 2.0% after 24 hrs.
Test [10] deals with Vibrio cholerae. Kind of test: Antibacterial activity against Vibrio cholerae assessed as diameter of inhibition zone at 2.0% after 24 hrs. Also on record: scale not given: the % may be the effect or the level left.
Test [11] relates to Escherichia coli. Kind of test: Antibacterial activity against Escherichia coli assessed as diameter of inhibition zone at 0.25% after 24 hrs.
Test [12] has as its system Vibrio cholerae. The test is described as follows: Antibacterial activity against Vibrio cholerae assessed as diameter of inhibition zone at 0.25% after 24 hrs. Also on record: scale not given: the % may be the effect or the level left.
Test [13] deals with Staphylococcus aureus. Kind of test: Antibacterial activity against Staphylococcus aureus assessed as diameter of inhibition zone at 0.5% after 24 hrs.
The subject of test [14] is Escherichia coli. Kind of test: Antibacterial activity against Escherichia coli assessed as diameter of inhibition zone at 2.0% after 24 hrs.
Test [15] has as its system Staphylococcus aureus. The test is described as follows: Antibacterial activity against Staphylococcus aureus assessed as diameter of inhibition zone at 0.25% after 24 hrs.
The subject of test [16] is Pseudomonas aeruginosa. Kind of test: Antibacterial activity against Pseudomonas aeruginosa assessed as diameter of inhibition zone at 0.25% after 24 hrs.

As for `Oc1ccccc1/C=N/NC(=S)Nc1ccccc1`, the inhibition zone (IZ) in [1] stood at 7 mm; in test [2], 5 mm; in [4], 8 mm; in test [5], 8 mm; in test [6], 7 mm; in test [8] it was 9 mm. Further, the inhibition zone (IZ) in test [9] is 9 mm; in [11] it was 5 mm; in [13], 6 mm. For the same compound, the Activity in [3] was 6%; in test [7], 8%; in test [10] it was 9%; in test [12] it was 4%.

On to `CN[C@@H]1[C@H](O[C@H]2[C@H](O[C@H]3[C@H](O)[C@@H](O)[C@H](N=C(N)N)[C@@H](O)[C@@H]3N=C(N)N)O[C@@H](C)[C@]2(O)C=O)O[C@@H](CO)[C@H](O)[C@H]1O` [STREPTOMYCIN], for which the inhibition zone (IZ) in test [1] was found to be 20 mm; in test [2], 21 mm; in [4] it was 22 mm; in [5] it was 23 mm; in test [6] it was 23 mm; in test [14], 25 mm. In addition, the inhibition zone (IZ) turned out to be 25 mm in test [8]; 24 mm in test [9]; 18 mm in test [11]; 17 mm in test [15]; 18 mm in test [16]; 19 mm in [13]. Also, the Activity was 17% in test [3], 20% in [7], 22% in test [10] and 14% in test [12].
